Measured values reported in ChEMBL document CHEMBL4808193, “[11]-Chaetoglobosins from Pseudeurotium bakeri Induce G2/M Cell Cycle Arrest and Apoptosis in Human Cancer Cells” (J Nat Prod, 2021).
Activity calls are given as the source filed them. The rule behind the calls is not given here.

Tests used:
[1] = tested on: A549; test: Cytotoxicity against human A549 cells assessed as reduction in cell viability by MTT assay; type: functional, cell-based
[2] = tested on: A-427; test: Cytotoxicity against human A-427 cells assessed as reduction in cell viability by MTT assay; type: functional, cell-based
[3] = tested on: HCT-116; test: Cytotoxicity against human HCT-116 cells assessed as reduction in cell viability by MTT assay; type: functional, cell-based
[4] = tested on: HT-29; test: Cytotoxicity against human HT-29 cells assessed as reduction in cell viability by MTT assay; type: functional, cell-based
[5] = tested on: MCF7; test: Cytotoxicity against human MCF7 cells assessed as reduction in cell viability by MTT assay; type: functional, cell-based
[6] = tested on: HeLa; test: Cytotoxicity against human HeLa cells assessed as reduction in cell viability by MTT assay; type: functional, cell-based
[7] = tested on: HepG2; test: Cytotoxicity against human HepG2 cells assessed as reduction in cell viability by MTT assay; type: functional, cell-based
[8] = tested on: L02; test: Cytotoxicity against human L02 cells assessed as reduction in cell viability by MTT assay; type: cell-based
[9] = tested on: MCF7; test: Cell cycle arrest in human MCF7 cells assessed as accumulation at S phase at 5 uM measured after 24 hrs by PI staining based flow cytometry (reference value: 24.64%); type: functional
[10] = tested on: MCF7; test: Cell cycle arrest in human MCF7 cells assessed as accumulation at G0/G1 phase at 5 uM measured after 24 hrs by PI staining based flow cytometry (reference value: 60.23%); type: functional
[11] = tested on: MCF7; test: Induction of apoptosis in human MCF7 cells assessed as increase in Bax protein level at 5 to 10 uM incubated for 24 hrs by Western blot analysis; type: functional, cell-based; conditions: dose 5-10 µM
[12] = tested on: MCF7; test: Induction of apoptosis in human MCF7 cells assessed as increase in cytochrome c level at 5 to 10 uM incubated for 24 hrs by Western blot analysis; type: functional, cell-based; conditions: dose 5-10 µM
[13] = tested on: MCF7; test: Induction of apoptosis in human MCF7 cells assessed as increase in cleaved caspase 3 level at 5 to 10 uM incubated for 24 hrs by Western blot analysis; type: functional, cell-based; conditions: dose 5-10 µM
[14] = tested on: MCF7; test: Induction of apoptosis in human MCF7 cells assessed as increase in PARP level at 5 to 10 uM incubated for 24 hrs by Western blot analysis; type: functional, cell-based; conditions: dose 5-10 µM
[15] = tested on: MCF7; test: Induction of apoptosis in human MCF7 cells assessed as increase in cleaved PARP level at 5 to 10 uM incubated for 24 hrs by Western blot analysis; type: functional, cell-based; conditions: dose 5-10 µM
[16] = tested on: A-427; test: Induction of apoptosis in human A-427 cells assessed as late apoptotic cells at 5 uM measured after 24 hrs by Annexin V-FITC/propidium iodide staining based flow cytometric analysis (reference value: 3.18%); type: functional
[17] = tested on: A-427; test: Induction of apoptosis in human A-427 cells assessed as late apoptotic cells at 3.75 uM measured after 24 hrs by Annexin V-FITC/propidium iodide staining based flow cytometric analysis (reference value: 3.18%); type: functional
[18] = tested on: A-427; test: Induction of apoptosis in human A-427 cells assessed as late apoptotic cells at 2.5 uM measured after 24 hrs by Annexin V-FITC/propidium iodide staining based flow cytometric analysis (reference value: 3.18%); type: functional
[19] = tested on: A-427; test: Induction of apoptosis in human A-427 cells assessed as early apoptotic cells at 5 uM measured after 24 hrs by Annexin V-FITC/propidium iodide staining based flow cytometric analysis (reference value: 4.98%); type: functional
[20] = tested on: A-427; test: Induction of apoptosis in human A-427 cells assessed as early apoptotic cells at 3.75 uM measured after 24 hrs by Annexin V-FITC/propidium iodide staining based flow cytometric analysis (reference value: 4.98%); type: functional
[21] = tested on: A-427; test: Induction of apoptosis in human A-427 cells assessed as early apoptotic cells at 2.5 uM measured after 24 hrs by Annexin V-FITC/propidium iodide staining based flow cytometric analysis (reference value: 4.98%); type: functional
[22] = tested on: MCF7; test: Induction of apoptosis in human MCF7 cells assessed as late apoptotic cells at 10 uM measured after 24 hrs by Annexin V-FITC/propidium iodide staining based flow cytometric analysis (reference value: 1.11%); type: functional
[23] = tested on: MCF7; test: Induction of apoptosis in human MCF7 cells assessed as late apoptotic cells at 7.5 uM measured after 24 hrs by Annexin V-FITC/propidium iodide staining based flow cytometric analysis (reference value: 1.11%); type: functional
[24] = tested on: MCF7; test: Induction of apoptosis in human MCF7 cells assessed as late apoptotic cells at 5 uM measured after 24 hrs by Annexin V-FITC/propidium iodide staining based flow cytometric analysis (reference value: 1.11%); type: functional
[25] = tested on: MCF7; test: Induction of apoptosis in human MCF7 cells assessed as early apoptotic cells at 10 uM measured after 24 hrs by Annexin V-FITC/propidium iodide staining based flow cytometric analysis (reference value: 4.82%); type: functional
[26] = tested on: MCF7; test: Induction of apoptosis in human MCF7 cells assessed as early apoptotic cells at 7.5 uM measured after 24 hrs by Annexin V-FITC/propidium iodide staining based flow cytometric analysis (reference value: 4.82%); type: functional
[27] = tested on: MCF7; test: Induction of apoptosis in human MCF7 cells assessed as early apoptotic cells at 5 uM measured after 24 hrs by Annexin V-FITC/propidium iodide staining based flow cytometric analysis (reference value: 4.82%); type: functional
[28] = tested on: A-427; test: Cell cycle arrest in human A-427 cells assessed as accumulation at G2/M phase at 5 uM measured after 24 hrs by PI staining based flow cytometry (reference value: 19.81%); type: functional
[29] = tested on: A-427; test: Cell cycle arrest in human A-427 cells assessed as accumulation at S phase at 5 uM measured after 24 hrs by PI staining based flow cytometry (reference value: 27.27%); type: functional
[30] = tested on: A-427; test: Cell cycle arrest in human A-427 cells assessed as accumulation at G0/G1 phase at 5 uM measured after 24 hrs by PI staining based flow cytometry (reference value: 52.93%); type: functional
[31] = tested on: A-427; test: Cell cycle arrest in human A-427 cells assessed as accumulation at G2/M phase at 3.75 uM measured after 24 hrs by PI staining based flow cytometry (reference value: 19.81%); type: functional
[32] = tested on: A-427; test: Cell cycle arrest in human A-427 cells assessed as accumulation at S phase at 3.75 uM measured after 24 hrs by PI staining based flow cytometry (reference value: 27.27%); type: functional
[33] = tested on: A-427; test: Cell cycle arrest in human A-427 cells assessed as accumulation at G0/G1 phase at 3.75 uM measured after 24 hrs by PI staining based flow cytometry (reference value: 52.93%); type: functional
[34] = tested on: A-427; test: Cell cycle arrest in human A-427 cells assessed as accumulation at G2/M phase at 2.5 uM measured after 24 hrs by PI staining based flow cytometry (reference value: 19.81%); type: functional
[35] = tested on: A-427; test: Cell cycle arrest in human A-427 cells assessed as accumulation at S phase at 2.5 uM measured after 24 hrs by PI staining based flow cytometry (reference value: 27.27%); type: functional
[36] = tested on: A-427; test: Cell cycle arrest in human A-427 cells assessed as accumulation at G0/G1 phase at 2.5 uM measured after 24 hrs by PI staining based flow cytometry (reference value: 52.93%); type: functional
[37] = tested on: MCF7; test: Cell cycle arrest in human MCF7 cells assessed as accumulation at G2/M phase at 10 uM measured after 24 hrs by PI staining based flow cytometry (reference value: 15.13%); type: functional
[38] = tested on: MCF7; test: Cell cycle arrest in human MCF7 cells assessed as accumulation at S phase at 10 uM measured after 24 hrs by PI staining based flow cytometry (reference value: 24.64%); type: functional
[39] = tested on: MCF7; test: Cell cycle arrest in human MCF7 cells assessed as accumulation at G0/G1 phase at 10 uM measured after 24 hrs by PI staining based flow cytometry (reference value: 60.23%); type: functional
[40] = tested on: MCF7; test: Cell cycle arrest in human MCF7 cells assessed as accumulation at G2/M phase at 7.5 uM measured after 24 hrs by PI staining based flow cytometry (reference value: 15.13%); type: functional
[41] = tested on: MCF7; test: Cell cycle arrest in human MCF7 cells assessed as accumulation at S phase at 7.5 uM measured after 24 hrs by PI staining based flow cytometry (reference value: 24.64%; type: functional
[42] = tested on: MCF7; test: Cell cycle arrest in human MCF7 cells assessed as accumulation at G0/G1 phase at 7.5 uM measured after 24 hrs by PI staining based flow cytometry (reference value: 60.23%); type: functional
[43] = tested on: MCF7; test: Cell cycle arrest in human MCF7 cells assessed as accumulation at G2/M phase at 5 uM measured after 24 hrs by PI staining based flow cytometry (reference value: 15.13%); type: functional

CC1=C[C@@H]2/C=C/C[C@H](C)CC/C=C\C(=O)[C@]23C(=O)N[C@@H](Cc2c[nH]c4ccccc24)[C@@H]3[C@@H]1C
IC50 [1]: 8.2 µM | IC50 [2]: 4.7 µM | IC50 [3]: 8 µM | IC50 [4]: 6.7 µM | IC50 [5]: 6.2 µM | IC50 [6]: 7.1 µM | IC50 [7]: 9.1 µM | IC50 [8]: 44.1 µM | Activity [9]: 13.15% | Activity [10]: 44.64% | Activity [11]: Active | Activity [12]: Active | Activity [13]: Active | Activity [14]: Active | Activity [15]: Active | Activity [16]: 22.56% | Activity [17]: 24.36% | Activity [18]: 3.07% | Activity [19]: 20.14% | Activity [20]: 15.57% | Activity [21]: 11.53% | Activity [22]: 7.12% | Activity [23]: 6.76% | Activity [24]: 4.68% | Activity [25]: 25.44% | Activity [26]: 19.53% | Activity [27]: 11.86% | Activity [28]: 71.12% | Activity [29]: 17.84% | Activity [30]: 11.04% | Activity [31]: 67.84% | Activity [32]: 19.02% | Activity [33]: 13.13% | Activity [34]: 62.86% | Activity [35]: 21.83% | Activity [36]: 15.31% | Activity [37]: 59.55% | Activity [38]: 12.37% | Activity [39]: 28.08% | Activity [40]: 48.75% | Activity [41]: 18.43% | Activity [42]: 32.82% | Activity [43]: 42.22%
